Holding throughout (conditions): treatment time: 24 h
For one test, the system named is U2OS-mOrange2-Peroxisome. Kind of test: cell count relative to DMSO control (panel B, lysosome/peroxisome/lipid stain) (fraction of control); higher = more cells (less toxicity). The procedure:
(§1)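 U2OS-derived cells in 384-well plates were treated for 24 h with a 7-point 2-fold dilution series (top dose 20 µM for most compounds; final max DMSO 1%), then fixed, stained in four marker panels and imaged on a Cellomics ArrayScan. Cell count per treatment (three replicate plates merged) is given as a fraction of DMSO control. Panel A used parental U2OS, panel B U2OS-mOrange2-Peroxisome, panel C1 U2OS-LMNB1-TUBA1B-ACTB (DRAQ5 nuclei).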

The test system of another test is U2OS-LMNB1-TUBA1B-ACTB. As to the kind of experiment: cell count relative to DMSO control (panel C1, DRAQ5/ER stain) (fraction of control); higher = more cells (less toxicity). The procedure:
as §1

The test system of another test is U2OS. As to the kind of experiment: cell count relative to DMSO control (panel A, nuclei/RNA/PMG/mitochondria stain) (fraction of control); higher = more cells (less toxicity). The procedure:
as §1

Data on four compounds can be found in the supplement of paper PMC9780213.

Each structure is given as a SMILES string.

`CCN(CC)CCCC(C)Nc1c2ccc(Cl)cc2nc2ccc(OC)cc12` (centres undefined) [mepacrine]: the cell count with U2OS-mOrange2-Peroxisome (0.3125 µM) was 0.781; in the test on U2OS-mOrange2-Peroxisome (0.625 µM) it was 0.889; in the test with U2OS-mOrange2-Peroxisome (1.25 µM), 0.854; with U2OS-mOrange2-Peroxisome (2.5 µM), 0.763; in the test with U2OS-mOrange2-Peroxisome (5 µM), 0.778; in the test on U2OS-mOrange2-Peroxisome (10 µM), 0.733. The cell count with U2OS-mOrange2-Peroxisome (20 µM) is 0.449; in the test with U2OS-LMNB1-TUBA1B-ACTB (0.3125 µM) it was 1.13; in the test with U2OS-LMNB1-TUBA1B-ACTB (0.625 µM), 1.01; in the test with U2OS-LMNB1-TUBA1B-ACTB (1.25 µM) it was 1.03; in the test with U2OS-LMNB1-TUBA1B-ACTB (2.5 µM), 1.07; in the test on U2OS-LMNB1-TUBA1B-ACTB (5 µM), 1.08. For the same compound, the cell count was 1.05 in the test on U2OS-LMNB1-TUBA1B-ACTB (10 µM); 0.727 in the test with U2OS-LMNB1-TUBA1B-ACTB (20 µM); 1.02 in the test with U2OS (0.3125 µM); 0.981 with U2OS (0.625 µM); 0.98 in the test with U2OS (1.25 µM); 0.921 in the test with U2OS (2.5 µM). In addition, the cell count with U2OS (5 µM) amounted to 0.925; in the test with U2OS (10 µM), 0.85; with U2OS (20 µM) it was 0.616.

Take `CN(Cc1cnc2nc(N)nc(N)c2n1)c1ccc(C(=O)N[C@@H](CCC(=O)O)C(=O)O)cc1` [methotrexate]: the cell count was 0.761 in the test with U2OS-mOrange2-Peroxisome (0.07812 µM); 0.757 with U2OS-mOrange2-Peroxisome (0.15625 µM); 0.663 with U2OS-mOrange2-Peroxisome (0.3125 µM); 0.807 in the test on U2OS-mOrange2-Peroxisome (0.625 µM); 0.808 in the test on U2OS-mOrange2-Peroxisome (1.25 µM); 0.78 in the test with U2OS-mOrange2-Peroxisome (2.5 µM). Also, the cell count stood at 0.748 in the test on U2OS-mOrange2-Peroxisome (5 µM); 0.922 with U2OS-LMNB1-TUBA1B-ACTB (0.07812 µM); 0.8 with U2OS-LMNB1-TUBA1B-ACTB (0.15625 µM); 0.838 in the test with U2OS-LMNB1-TUBA1B-ACTB (0.3125 µM); 0.851 in the test on U2OS-LMNB1-TUBA1B-ACTB (0.625 µM); 0.728 with U2OS-LMNB1-TUBA1B-ACTB (1.25 µM). Further, the cell count with U2OS-LMNB1-TUBA1B-ACTB (2.5 µM) worked out at 0.663; in the test on U2OS-LMNB1-TUBA1B-ACTB (5 µM), 0.497; in the test with U2OS (0.07812 µM), 0.782; in the test with U2OS (0.15625 µM), 0.699; in the test on U2OS (0.3125 µM) it was 0.705; in the test with U2OS (0.625 µM) it was 0.696. The cell count stood at 0.691 in the test with U2OS (1.25 µM), 0.689 in the test on U2OS (2.5 µM) and 0.561 in the test with U2OS (5 µM).

For the compound `CO[C@@]12[C@H](COC(N)=O)C3=C(C(=O)C(C)=C(N)C3=O)N1C[C@@H]1N[C@@H]12` [mitomycin-c], the cell count with U2OS-mOrange2-Peroxisome (0.3125 µM) amounted to 0.696; with U2OS-mOrange2-Peroxisome (0.625 µM) it was 0.65; in the test with U2OS-mOrange2-Peroxisome (1.25 µM) it was 0.706; in the test with U2OS-mOrange2-Peroxisome (2.5 µM), 0.72; in the test on U2OS-mOrange2-Peroxisome (5 µM), 0.6; in the test with U2OS-mOrange2-Peroxisome (10 µM), 0.363. Further, the cell count in the test with U2OS-mOrange2-Peroxisome (20 µM) amounted to 0.279; with U2OS-LMNB1-TUBA1B-ACTB (0.3125 µM), 0.882; with U2OS-LMNB1-TUBA1B-ACTB (0.625 µM), 0.789; in the test on U2OS-LMNB1-TUBA1B-ACTB (1.25 µM), 0.864; in the test with U2OS-LMNB1-TUBA1B-ACTB (2.5 µM) it was 0.812; with U2OS-LMNB1-TUBA1B-ACTB (5 µM) it was 0.746. Also, the cell count is 0.672 with U2OS-LMNB1-TUBA1B-ACTB (10 µM); 0.38 with U2OS-LMNB1-TUBA1B-ACTB (20 µM); 0.677 with U2OS (0.3125 µM); 0.708 with U2OS (0.625 µM); 0.683 in the test on U2OS (1.25 µM); 0.639 in the test on U2OS (2.5 µM). Moreover, the cell count turned out to be 0.59 with U2OS (5 µM), 0.531 in the test on U2OS (10 µM) and 0.278 in the test with U2OS (20 µM).

Take `O=C1c2c(O)ccc(O)c2C(=O)c2c(NCCNCCO)ccc(NCCNCCO)c21` [mitoxantrone]: the cell count in the test on U2OS-mOrange2-Peroxisome (0.07812 µM) was determined as 1.16; with U2OS-mOrange2-Peroxisome (0.15625 µM), 0.953; in the test on U2OS-mOrange2-Peroxisome (0.3125 µM), 0.648; with U2OS-mOrange2-Peroxisome (0.625 µM) it was 0.642; in the test with U2OS-mOrange2-Peroxisome (1.25 µM), 0.605; with U2OS-mOrange2-Peroxisome (2.5 µM) it was 0.544. The cell count in the test with U2OS-mOrange2-Peroxisome (5 µM) was found to be 0.548; with U2OS-LMNB1-TUBA1B-ACTB (0.07812 µM), 1.05; with U2OS-LMNB1-TUBA1B-ACTB (0.15625 µM), 0.693; in the test with U2OS-LMNB1-TUBA1B-ACTB (0.3125 µM), 0.532; in the test with U2OS-LMNB1-TUBA1B-ACTB (0.625 µM) it was 0.465; in the test on U2OS-LMNB1-TUBA1B-ACTB (1.25 µM) it was 0.434. Besides, the cell count with U2OS-LMNB1-TUBA1B-ACTB (2.5 µM) was 0.403; in the test on U2OS-LMNB1-TUBA1B-ACTB (5 µM), 0.371; in the test with U2OS (0.07812 µM) it was 0.956; with U2OS (0.15625 µM), 0.887; with U2OS (0.3125 µM) it was 0.662; in the test with U2OS (0.625 µM), 0.503. For the same compound, the results for the cell count in the test with U2OS (1.25 µM), with U2OS (2.5 µM) and in the test on U2OS (5 µM) were 0.411, 0.455 and 0.447, respectively.
